Measured values as given in patent US20060276436A1, “Farnesyl dibenzodiazepinone formulation” (Ecopia BioSciences, Inc., priority 2005, published 2006).
Several values for one entry are separate records, joined by “and”; a condition that tells them apart may be missing. Equal entries are not always repeated. Where two headings read alike, the source gives them in different places. Marks after values point to notes of the source that are not given here.

Tests used:
[1] = tested on: human prostate tumor (PC3) xenografts; assay: Human PC3 prostate cancer mice model; type: in vivo, HRLN male nude mice; settings: Intravenous treatment, 100 mg/kg 5/2/5/2/5
Method: The anticancer activity of Compound 1 was tested in a human PC3 prostate model in mice, using formulation D11; at 6, 9 and 10 mg/mL concentrations (see Table 7). HRLN male nude mice (8 weeks of age) were implanted with 1 mm^3 PC3 tumor fragments subcutaneously (sc) in the right flank. Animals were randomized (ten per group) when tumors reach an average size of 80-120 mg and treatment began according to the table below.
Tumor measurements were taken twice weekly using callipers and were converted to tumor mass (in milligrams) using the formula: with^2 (mm)×length (mm)×0.52. Body weights were also recorded twice weekly. Statistical analysis was done using the unpaired two-tailed Student's t test.

[2] = Pharmacokinetics of Formulation D11 given CIV for 14 days in rats; type: in vivo; settings: both sexes, Sprague-Dawley, rat, plasma; for concentration at 2 h: read-out: mean plasma concentration 2 hours after the end of infusion; for Vd / AUC / clearance: iv, 14-day CIV
Method: Sprague-Dawley rats received an intravenous continuous infusion over 14 days of Compound 1 at 25 mg/kg/day, 50 mg/kg/day, or 75 mg/kg/day at a rate of 2 mL/kg/h for 14 consecutive days (Formulation D11). Blood was collected from the jugular vein in tubes containing K2 EDTA from 3 rats/sex/group at the following time points: 2, 6, and 12 hours after the start of dosing on Day 1, on Day 2 at 6 hours (approximately 30 hours after the start of dosing), on Days 6 and 10 at 6 hours, and on Day 15, 1 hour prior the end of dosing, and then at 5 min, 15 min, 30 min, 1 h, and 2 h after the end of dosing.

[3] = Pharmacokinetics of Formulation D11 given CIV for 14 days in monkeys; type: in vivo, Cynomolgus monkeys; settings: for Css / T1/2z / Vd / AUC / clearance: 14-day CIV, Mean (SD); for Css: average between 30 h and 14 days; for T1/2z: end of treatment; for Vd / AUC / clearance: iv
Method: Cynomolgus monkeys received continuous IV infusion over 14 days of Compound 1 at 5 mg/kg/day, 15 mg/kg/day, or 30 mg/kg/day. The drug was infused intravenously (24 hours/day) into the femoral vein at a dose rate of 2 ml/kg/hour for 14 consecutive days. Blood samples were removed from each monkey on Days 1, 2, 6, 10, and 15 of the treatment period. Monkeys were bled by venipuncture and samples were collected into tubes containing K2EDTA. On Day 1, samples were collected at 2, 6, and 12 hours after initiation of treatment. Additional samples were collected at 30 hours after the start of infusion (Day 2). On Days 6 and 10, samples were collected at approximately 6 hours after the bag changes. At the end of the 14 days of infusion, on Day 15, samples were collected at 1 hour prior to cessation of dose administration, and at 5 min, 30 min, 1 h, 2 h, 4 h, 8 h, and 24 h following cessation of dose administration.

[4] = Population pharmacokinetic analysis (NONMEM), monkey; type: in vivo; settings: cynomolgus, plasma, iv, Monkey (CIV); for half-life: monkey; for Vd: read-out: Vss
Description: Plasma concentrations of Compound 1 were obtained from mice, rats, and monkeys following intravenous injection or continuous infusion. Compound 1 pharmacokinetic parameters in mice, rats, and monkeys were estimated using population pharmacokinetic analysis, a function of the software program NONMEM™ (version 5). Typical population pharmacokinetic parameters for Compound 1 in humans were extrapolated from allometric equations that were derived from pharmacokinetic parameters estimated in the three animal species. […] A two-compartment model with a first-order elimination from the central compartment adequately described Compound 1 plasma concentration-time profiles following intravenous bolus injection (30 mg/kg) in mice and rats, 7-day continuous infusion in rats (50 to 170 mg/kg/day), and 14-day continuous infusion in monkeys (5 to 30 mg/kg/day).

[5] = cynomolgus monkey, plasma, intravenous, CIV, 30 mg/kg/day
[6] = cynomolgus monkey, plasma, 5 mg/kg/day
[7] = cynomolgus monkey, plasma, 15 mg/kg/day

In the case of `CC(C)=CCC/C(C)=C/CC/C(C)=C/CN1C(=O)c2cccc(O)c2Nc2c(O)cc(O)cc21` [Compound 1, 10-farnesyl-4,6,8-trihydroxy-dibenzodiazepin-11-one], the “antitumor activity (in words)” value [1] is reported as “did not result in activity”, the concentration at 2 h ([2]; intravenous, 25 mg/kg/day) is reported as 0.028 µg/mL and the concentration at 2 h ([2]; intravenous, 50 mg/kg/day) is reported as 0.053 µg/mL. The concentration at 2 h ([2]; intravenous, 75 mg/kg/day) was 0.075 µg/mL, the concentration at 10 day ([2]; intravenous, CIV, 50 mg/kg/day) was 1750 ng/mL and ~3.8 µM and the Vd ([2]; 25 mg/kg/day, 25 mg/kg/day, read-out: Vss) was 15.8 L/kg. The Vd ([2]; 25 mg/kg/day, 25 mg/kg/day, read-out: Vz) was 6.8 L/kg, the Vd ([2]; 50 mg/kg/day, 50 mg/kg/day, read-out: Vss) was 38.8 L/kg and the Vd ([2]; 50 mg/kg/day, 50 mg/kg/day, read-out: Vz) was 3.1 L/kg. It also gave a Vd ([2]; 75 mg/kg/day, 75 mg/kg/day, read-out: Vss) of 15.4 L/kg, a Vd ([2]; 75 mg/kg/day, 75 mg/kg/day, read-out: Vz) of 3.1 L/kg and an AUC ([2]; 25 mg/kg/day) of 116 µg·h/mL. The clearance ([2]; 25 mg/kg/day) was 3 L/h/kg, the AUC ([2]; 50 mg/kg/day) was 396 µg·h/mL and the clearance ([2]; 50 mg/kg/day) was 1.8 L/h/kg. For the same molecule, the AUC ([2]; 75 mg/kg/day) was 597 µg·h/mL, the clearance ([2]; 75 mg/kg/day) was 1.8 L/h/kg and the “AUC increase between groups” value ([3]; 15 mg/kg/day versus 5 mg/kg/day) was 3.4 fold. The “AUC increase between groups” value ([3]; 30 mg/kg/day versus 15 mg/kg/day) was 4.7 fold, the Css ([3]; 5 mg/kg/day) was 358^b (85)^ ng/mL and the T1/2z ([3]; 5 mg/kg/day) was 12 (3) h. For the same molecule, the Css ([3]; 15 mg/kg/day) was 1,173 (340) ng/mL, the T1/2z ([3]; 15 mg/kg/day) was 8.3 (2.2) h and the Css ([3]; 30 mg/kg/day) was 6,283 (3,650) ng/mL. The T1/2z ([3]; 30 mg/kg/day) was 8.1 (1.0) h, the concentration at 1 day [3, 5] was 2810 ng/mL and ~6.1 µM and the concentration at 6 day [3, 5] was 4350 ng/mL and ~9.4 µM. For the same molecule, the concentration at 10 day [3, 5] was ~15 µM and 6860 ng/mL, the concentration at 15 day [3, 5] was 8560 ng/mL and ~18.5 µM and the Vd ([3]; cynomolgus monkey, plasma, 5 mg/kg/day, 5 mg/kg/day, read-out: Vss) was 7.1 L/kg. For the same molecule, the Vd ([3]; cynomolgus monkey, plasma, 5 mg/kg/day, 5 mg/kg/day, read-out: Vz) was 10 L/kg, the Vd ([3]; cynomolgus monkey, plasma, 15 mg/kg/day, 15 mg/kg/day, read-out: Vss) was 3.6 L/kg and the AUC [3, 6] was 119 µg·h/mL. It also gave a clearance [3, 6] of 0.61 L/h/kg, an AUC [3, 7] of 400 µg·h/mL and a clearance [3, 7] of 0.56 L/h/kg. It also gave an AUC ([3]; cynomolgus monkey, plasma, 30 mg/kg/day) of 1870 µg·h/mL, a Vd ([3]; cynomolgus, cynomolgus monkey, plasma, 15 mg/kg/day, 15 mg/kg/day, read-out: Vz) of 6.8 L/kg and a Vd ([3]; cynomolgus, cynomolgus monkey, plasma, 30 mg/kg/day, 30 mg/kg/day, read-out: Vss) of 10.7 L/kg. It also gave a Vd ([3]; cynomolgus, cynomolgus monkey, plasma, 30 mg/kg/day, 30 mg/kg/day, read-out: Vz) of 3.2 L/kg, a clearance ([3]; cynomolgus, cynomolgus monkey, plasma, 30 mg/kg/day) of 0.27 L/h/kg and a half-life ([4]; population PK, read-out: t1/2, α (converted)) of 0.308 h. For the same molecule, the half-life ([4]; population PK, read-out: t1/2, β (converted)) was 8.05 h, the clearance ([4]; WT 3.8 Kg) was 28 mL/min and the Vd ([4]; WT 3.8 Kg) was 2.36 L. It also gave a clearance ([4]; population PK) of 0.441 L/h/kg and a Vd ([4]; population PK) of 0.622 L/kg.
